Laboratory results taken from patent publication US11892401B2, “Boronic acid appended naphthyl-pyridinium fluorescent saccharide sensors for early detection of gastrointestinal diseases” (The Board of Trustees of the Leland Stanford Junior …, priority 2018, dated 2024).
Read-outs that look alike come from different tables or passages of the source.

Experiments:
[1] = Stern-Volmer quenching of HPTS anionic reporter dye; assay type: binding; details: 4 μM HPTS, 0.1 M sodium phosphate buffer pH 7.4, sphere of action quenching model
Protocol: (§1) Stern-Volmer quenching of HPTS and TSPP anionic reporter dyes: Stock solutions of exemplary boronic acid compounds (1, 3, and 4) were initially prepared in DMS (1 mg/mL) and then diluted in 0.1 M sodium phosphate buffer pH 7.4 to obtain the desired initial 2-fold concentration. Fluorescence measurements were conducted in a 96-well plate (Corning #3694) and to each well were added 20 μL of each exemplary compound and 8 μM of HPTS or TSPP in triplicate. Initial fluorescence wells contained 20 μL of each reporter dye and 20 μL of buffer. Blank wells received 40 μL of buffer only. Measurements were performed using a Tecan infinite M1000 instrument a plate reader (gain 100, flashes 30, z-position 1.8 cm) Plates were shaken for 30 seconds (2 mm orbital amplitude) prior to reading. After blank subtraction, fluorescence intensity relative to initial total fluorescence of HPTS or TSPP (Fo/F) for each sample was calculated.
(§2) Given the cationic character of the subject receptor compounds, their ability to form a non-fluorescent ground state complex with anionic reporter dyes, such as HPTS and TSPP was investigated. The fluorescence quenching of each dye can be quantitatively monitored by Stern-Volmer analysis (Albrecht, C., Anal. Bioanal. Chem. 2008, 390 (5), 1223-1224). Two types of quenching can exist, static quenching, due to complex formation, and dynamic quenching, due to collisional encounters between the dye and quencher. Based on previous work with bis-boronic acid appended viologens (BBV) and their ability to quench HPTS (Cordes, D. B.; Gamsey, S.; Sharrett, Z.; Miller, A.; Thoniyot, P.; Wessling, R. A.; Singaram, B., Langmuir 2005, 21 (14), 6540-6547), a similar quenching mechanism was envisaged for each anionic reporter dye, through static quenching. The effects of adjusting the quencher to dye ratio for HPTS and TSPP with each of compounds 1, 3, and 4 while monitoring the decrease of fluorescence for each dye are shown in FIG. 5, panel A (HPTS) and FIG. 5, panel B (TSPP).
(§3) With each of compounds 1, 3 and 4 only having two cationic groups, it was anticipated anticipated that higher (>400 μM) amounts of each quencher would be required to achieve at least 80% of quenched fluorescence. […] Using the fluorescence data, the quenching efficiency can be determined using the available Stern-Volmer fitting models. The best fit to the Stern-Volmer plots for the exemplary compounds was obtained using the sphere of action quenching model (Eq. 2) (Frank, J. M.; Vavilov, S. I., Z. Phys. 1931, 69, 100-10).
(§4) [formula] Where V is the dynamic quenching constant, Ks is the static quenching constant, [Q] is the concentration of the quencher, and […] is derived from the Poisson distribution. There was higher contribution from the static quenching given the higher static quenching constants compared to the dynamic constants (Table 1).

[2] = Absorption measurements with increasing lactulose; assay type: physicochemical; details: 0.1 M sodium phosphate buffer pH 7.4; 100 μM (1, 2), 50 μM (3, 4)
Protocol: Absorption measurements of exemplary boronic acid receptor compounds: All absorption measurements were carried out using an Agilent Technologies Cary 60 Vis instrument in a quartz cuvette (1 cm pathlength). Stock solutions (1 mg/mL) of each compound was initially prepared in DMSO and then diluted to the desired concentration in 0.1 M sodium phosphate buffer pH 7.4 which gave minimal DMSO amount of at least 15%. Concentrations for each boronic acid receptor in cuvette are as follows; (1)=100 μM, (2)=100 μM, (3)=50 μM, and (4)=50 µM. Measurements were done in situ by taking the absorbance of each receptor compound in phosphate buffer pH 7.4, then aliquots of buffered 1 M lactulose (0.5-7 μL) was added, shaken for 30 seconds, and the new absorbance was recorded. With reference to FIG. 3, panels A to D, change of absorbance for each receptor compound was monitored as a function of increasing lactulose. […] Each compound provided absorbance maxima between 300-350 nm and with isosbestic points between 330-350 nm for all four receptors. Additionally, the compounds provided molar extinction coefficients of 1.17×10^4 (100 μM), 1.10×10^4 (100 μM), 2.77×10^4 (50 μM), and 5.01×10^4 (50 μM) M^−1 cm^−1 for 1-4 respectively. Without being bound to any particular theory, these absorption changes upon sugar binding at physiological pH for compounds 1-4 is indicative of a possible charge transfer process.

[3] = Fluorescence recovery of HPTS-receptor probes with 20 sugars; details: 4 μM HPTS, optimal Q:D ratio, pH 7.4, 20 sugars
Protocol: Fluorescence recovery of each anionic reporter dyes: Fluorescence recovery measurements for sugar binding studies were conducted by preparing 96-well plates with the addition of 20 μL of the boronic acid receptor-fluorophore (HPTS or TSPP) probe solution as 2-fold concentrate (for example, 160 μM for (1) & 8 μM HPTS or 800 μM for (1) & 8 μM for TSPP) in 0.1 M sodium phosphate buffer pH 7.4. At the time of running the assay, each well received 20 μL of sample in triplicate. Blank wells were given 40 μL buffer with neither HPTS nor boronic acid receptor compound. Baseline fluorescence wells contained 20 μL of buffer and 20 μL of probe solution. Fluorescence recovery of HPTS was measured on the plate reader. After blank subtraction, fluorescence intensity relative to initial quenched HPTS (F/Fo) for each sample was calculated. Under these conditions, Fo is a non-zero value after background subtraction with about 20% of maximum fluorescence intensity. […]
Each exemplary boronic acid appended naphthyl-pyridinium quencher-dye combination provided unique fluorescent recovery characteristics across all 20 sugars and sugar derivatives analyzed. […]

[4] = Stern-Volmer quenching of TSPP anionic reporter dye; assay type: binding; details: 4 μM TSPP, 0.1 M sodium phosphate buffer pH 7.4, sphere of action quenching model
Protocol: as §1, §2, §3, §4

[5] = Fluorescence emission of receptor compounds with increasing lactulose; details: phosphate buffer pH 7.4; for emission maxima: receptor 500 μM; for fluorescence intensity change on initial introduction of lactulose: lactulose 0.5 mM
Protocol: Fluorescence Measurements of exemplary boronic acid receptor compounds: Stock solutions of each boronic acid receptor compound (1-4) were initially prepared in DMS (1 mg/mL) and then diluted to desired initial 1 mM concentration before adding to the wells. Each lactulose concentration points were prepared in 0.1 M sodium phosphate buffer as 2-fold of the desired final concentration in each well. Each well received 20 μL of each receptor compound and sugar concentration (each data point recorded in triplicates) and the fluorescence measurements were conducted in a 96-well plate (Corning #3694) using a Tecan infinite M1000 instrument a plate reader (gain 100, flashes 30, z-position 1.8 cm) Plates were shaken for 30 seconds (2 mm orbital amplitude) prior to reading.
With reference to FIG. 4, panels A to D, the effect of lactulose on the fluorescent properties of each receptor compound (1-4) was examined in phosphate buffer pH 7.4. Receptor compounds (1) and (2) observed similar emission profiles with emission maxima at 504 and 490 nm, meanwhile the emission maxima for (3) and (4) was 50 nm less which peaked at 440 nm. […] These types of fluorescent changes have been previously observed by Norrild where a pyridinium moiety is directly conjugated to an anthracene core (Eggert, H.; Frederiksen, J.; Morin, C.; Norrild, J. C., Journal of Organic Chemistry 1999, 64 (11), 3846-3852). Without being bound to any particular theory, it was hypothesized that the pyridinium unit in the subject receptor compounds may act as an electron sink for the singlet electron diminishing the fluorescence intensity. Upon boronic acid-sugar recognition and subsequently conversion of the hybridization of the boron atom from sp^2 to anionic sp^3 generating a zwitterion induces an internal charge transfer (ICT)-like mechanism increasing the fluorescence intensity.

[6] = pH profile / pKa by fluorescence spectroscopy; assay type: physicochemical; details: receptor 500 μM (2) or 250 μM (3, 4), fluorescence titration pH 3-10
Protocol: Titration curves with pH were determined using the following buffer solutions, pH 3-4 acetate buffer; pH 5-8.5 phosphate buffer; and pH 9-10 carbonate buffer. Fluorescence intensity was monitored in the absence or presence of 30 mM lactulose for exemplary receptor compounds, e.g., 2, 500 μM; 3, 250 μM; and (4, 205 µM in the indicated buffer conditions. Stock solutions of each boronic acid receptor compound (2, 3, and 4) were initially prepared in DMS (1 mg/mL) and then diluted in appropriate buffer conditions to obtain the desired initial 2-fold concentration. Fluorescence measurements were conducted in a 96-well plate (Corning #3694) and to each well 30 μL of each receptor compound and buffer media with or without lactulose were added in triplicate. Blank wells received 60 μL of buffer only. Measurements were performed using a Tecan Infinite M1000 instrument, a plate reader (gain 100, flashes 30, z-position 1.8 cm) Plates were shaken for 30 seconds (2 mm orbital amplitude) prior to reading. After blank subtraction, fluorescence intensity relative to initial total fluorescence (at pH 3).
Each pH-profile was fitted with equation S1, where y=normalized intensity, ymax=maximum normalized intensity, ymin=minimum normalized intensity, x=pH value, k=acid dissociation constant and pka values were obtained from this constant (pka=−log k).
Titration curves fitted to equation S1.

[7] = 30 mM lactulose, read-out: pka-with 30 mM lactulose
[8] = aqueous buffer solutions in a 96-well plate, no lactulose, read-out: pKa-absence of lactulose

molar extinction coefficient [2] [M⁻¹ cm⁻¹] | change in fluorescence recovery, HPTS combination [3] [fold] | emission maxima [5] [nm] | pKa [6, 7] | pKa [6, 8] | fluorescence intensity change on initial introduction of lactulose [5] | Compound | HPTS Ks (static quenching constant) [1] | HPTS V (dynamic quenching constant) [1] [M⁻¹] | TSPP Ks (static quenching constant) [4] | TSPP V (dynamic quenching constant) [4] [M⁻¹]
11700 | ≥ 1.5 | 504 |  |  |  | OB(O)c1cc(C[n+]2ccc(-c3ccc4ccccc4c3)cc2)cc(C[n+]2ccc(-c3ccc4ccccc4c3)cc2)c1 [Compound 1] | 1.01 ± 0.5 × 10^5 M^−1 | 63 ± 15 | 5.24 ± 0.3 × 10^4 M^−1 | 112 ± 46
11000 |  | 490 | 5.5 ± 0.06 | 7.7 ± 0.08 |  | OB(O)c1ccccc1C[n+]1ccc(-c2ccc3ccccc3c2)cc1.[Br-] [Compound 2, 1-(2-boronobenzyl)-4-(naphthalen-2-yl) pyridinium bromide] |  |  |  | 
27700 |  | 440 | 5.8 ± 0.1 | 7.8 ± 0.03 | drastic intensity change | OB(O)c1ccccc1C[n+]1ccc(-c2ccc3cc(-c4cc[n+](Cc5ccccc5B(O)O)cc4)ccc3c2)cc1 [Compound 3] | 9.29 ± 0.4 × 10^4 M^−1 | 109 ± 18 | 5.01 ± 0.7 × 10^4 M^−1 | 68 ± 13
50100 |  | 440 | 5.7 ± 0.05 | 8.2 ± 0.02 | drastic intensity change | OB(O)c1ccccc1C[n+]1ccc(-c2ccc3ccc(-c4cc[n+](Cc5ccccc5B(O)O)cc4)cc3c2)cc1 [Compound 4] | 1.00 ± 0.9 × 10^5 M^−1 | 100 ± 14 | 1.45 ± 0.1 × 10^4 M^−1 | 80 ± 10
